Data taken from ChEMBL document CHEMBL1201862, “PubChem BioAssay data set” (2004).
Active and inactive are the calls of the source.

Tests used:
[1] = target: T1, Dual specificity protein phosphatase 3 (Homo sapiens, UniProt P51452); assay: VHR1 phosphatase inhibitors, primary screen, biochemical, absorbance, uHTS (AID 1654)
[2] = target: T1, Dual specificity protein phosphatase 3; assay: VHR1 phosphatase inhibitors, biochemical (AID 1878)
[3] = target: T2, Dual specificity protein phosphatase 6 (Rattus norvegicus, UniProt Q64346); assay: inhibition of rat DUSP6 enzyme activity – biochemical, in vitro, primary screen (AID 425)
T2 sequence (Q64346 whole entry): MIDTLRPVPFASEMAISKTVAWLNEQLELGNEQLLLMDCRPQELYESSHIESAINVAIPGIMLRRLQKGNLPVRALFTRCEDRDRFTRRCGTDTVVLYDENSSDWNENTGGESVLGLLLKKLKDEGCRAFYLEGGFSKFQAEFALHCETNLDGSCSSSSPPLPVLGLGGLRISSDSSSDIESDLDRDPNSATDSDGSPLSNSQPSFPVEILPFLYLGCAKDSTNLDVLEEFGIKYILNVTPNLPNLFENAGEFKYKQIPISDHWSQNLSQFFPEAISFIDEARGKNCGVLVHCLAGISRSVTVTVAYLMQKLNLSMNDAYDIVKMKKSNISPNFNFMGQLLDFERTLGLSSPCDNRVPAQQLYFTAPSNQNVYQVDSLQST

[4] = tested on: Vero; assay: viability of Vero cells under compound – cytotoxicity control for flavivirus capping enzyme inhibitors (AID 588742); type: functional; conditions: Chlorocebus sabaeus
[5] = target: Genome polyprotein (dengue virus type 2, UniProt P29990); assay: flavivirus cap methylation enzyme inhibition – biochemical, confirmation dose response, primary screen (AID 588689); type: functional
Sequence of Genome polyprotein (P29990 2492-3391 limits assumed): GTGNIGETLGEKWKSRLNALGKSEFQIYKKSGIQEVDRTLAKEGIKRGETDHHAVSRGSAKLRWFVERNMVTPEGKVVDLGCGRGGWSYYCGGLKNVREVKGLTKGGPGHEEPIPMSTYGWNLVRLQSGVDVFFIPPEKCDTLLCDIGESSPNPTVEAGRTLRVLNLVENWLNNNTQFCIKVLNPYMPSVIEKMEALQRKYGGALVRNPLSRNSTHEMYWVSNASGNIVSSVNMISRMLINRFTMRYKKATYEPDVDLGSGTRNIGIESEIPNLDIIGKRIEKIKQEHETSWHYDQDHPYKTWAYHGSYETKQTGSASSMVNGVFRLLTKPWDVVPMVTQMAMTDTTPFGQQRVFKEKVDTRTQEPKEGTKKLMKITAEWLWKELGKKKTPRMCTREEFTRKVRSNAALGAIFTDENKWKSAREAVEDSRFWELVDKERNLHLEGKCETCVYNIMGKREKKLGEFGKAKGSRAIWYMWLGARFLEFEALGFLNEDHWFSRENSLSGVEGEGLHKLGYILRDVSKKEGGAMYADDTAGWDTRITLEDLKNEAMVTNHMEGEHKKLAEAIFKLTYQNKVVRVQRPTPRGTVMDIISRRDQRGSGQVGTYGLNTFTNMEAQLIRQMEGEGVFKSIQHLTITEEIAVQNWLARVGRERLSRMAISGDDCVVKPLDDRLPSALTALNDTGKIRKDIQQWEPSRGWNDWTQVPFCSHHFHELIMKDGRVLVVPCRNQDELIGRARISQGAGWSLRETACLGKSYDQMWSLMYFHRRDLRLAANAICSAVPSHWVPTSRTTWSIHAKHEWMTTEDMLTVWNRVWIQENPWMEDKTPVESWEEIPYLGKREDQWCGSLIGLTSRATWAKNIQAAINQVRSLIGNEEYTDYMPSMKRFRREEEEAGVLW

[6] = target: T3, Carboxy-terminal domain RNA polymerase II polypeptide A small phosphatase 1 (Homo sapiens, UniProt Q9GZU7); assay: CTDSP1 inhibitors, concentration-response, biochemical, absorbance readout, ultra-high-throughput screen actives (AID 540297); type: functional
T3 sequence (Q9GZU7 whole entry): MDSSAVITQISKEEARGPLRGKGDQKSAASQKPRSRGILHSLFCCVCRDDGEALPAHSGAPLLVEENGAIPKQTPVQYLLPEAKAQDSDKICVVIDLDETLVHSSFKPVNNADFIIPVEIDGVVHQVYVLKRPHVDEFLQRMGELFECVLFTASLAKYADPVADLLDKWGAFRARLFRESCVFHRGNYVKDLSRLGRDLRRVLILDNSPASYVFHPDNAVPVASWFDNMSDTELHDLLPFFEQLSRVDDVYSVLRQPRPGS

[7] = target: T4, Small ubiquitin-related modifier 1 (Homo sapiens, UniProt P63165); assay: SUMO1 protein interaction blockers, potency – biochemical, fluorescence polarization, uHTS hits, dose response (AID 624382); type: functional; conditions: read-out: IC50_Mean
T4 sequence (P63165 whole entry): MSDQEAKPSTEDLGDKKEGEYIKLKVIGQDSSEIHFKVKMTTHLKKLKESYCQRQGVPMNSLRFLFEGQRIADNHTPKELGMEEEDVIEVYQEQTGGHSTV

[8] = target: T4, Small ubiquitin-related modifier 1; assay: SUMO1 protein-protein binding blockers, potency – biochemical, FRET, dose response (AID 624383); type: functional; conditions: read-out: IC50_Mean
[9] = inhibition of ARNT PAS-B/TACC3 complex formation – biochemical, AlphaScreen, cherry-picked samples, confirmation (AID 651703); type: functional, Homo sapiens;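 note: His-tagged ARNT PAS-B domain paired with GST-TACC3 E629A dimer coactivator fragment; potency of inhibitors that break up the complex and lower AlphaScreen signal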
[10] = target: 1-acylglycerol-3-phosphate O-acyltransferase ABHD5/Perilipin-5 (Homo sapiens, UniProt Q00G26+Q8WTS1); assay: Luminescence-based biochemical high throughput dose response assay for inhibitors of the interaction of the lipase co-activator protein, abhydrolase domain containing 5 (ABHD5) with perilipin-5 (MLDP; PLIN5) (2K validation set). [Related pubchem assays (depositor defined):AID493035, AID493241]
Sequence of 1-acylglycerol-3-phosphate O-acyltransferase ABHD5/Perilipin-5 (Q00G26 whole entry, the tested form may be a part): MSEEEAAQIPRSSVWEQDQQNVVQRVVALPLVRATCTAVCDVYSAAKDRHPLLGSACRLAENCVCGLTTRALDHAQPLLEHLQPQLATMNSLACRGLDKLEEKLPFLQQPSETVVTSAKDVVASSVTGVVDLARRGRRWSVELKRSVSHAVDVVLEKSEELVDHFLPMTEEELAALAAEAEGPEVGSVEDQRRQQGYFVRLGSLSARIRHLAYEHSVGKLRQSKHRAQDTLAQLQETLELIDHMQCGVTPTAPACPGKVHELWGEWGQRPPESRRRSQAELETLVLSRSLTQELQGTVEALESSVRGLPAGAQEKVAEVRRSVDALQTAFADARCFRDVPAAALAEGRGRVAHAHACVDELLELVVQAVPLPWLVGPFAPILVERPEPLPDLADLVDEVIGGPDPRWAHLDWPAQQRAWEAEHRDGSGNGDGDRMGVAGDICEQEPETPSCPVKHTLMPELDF
Sequence of 1-acylglycerol-3-phosphate O-acyltransferase ABHD5/Perilipin-5 (Q8WTS1 whole entry, the tested form may be a part): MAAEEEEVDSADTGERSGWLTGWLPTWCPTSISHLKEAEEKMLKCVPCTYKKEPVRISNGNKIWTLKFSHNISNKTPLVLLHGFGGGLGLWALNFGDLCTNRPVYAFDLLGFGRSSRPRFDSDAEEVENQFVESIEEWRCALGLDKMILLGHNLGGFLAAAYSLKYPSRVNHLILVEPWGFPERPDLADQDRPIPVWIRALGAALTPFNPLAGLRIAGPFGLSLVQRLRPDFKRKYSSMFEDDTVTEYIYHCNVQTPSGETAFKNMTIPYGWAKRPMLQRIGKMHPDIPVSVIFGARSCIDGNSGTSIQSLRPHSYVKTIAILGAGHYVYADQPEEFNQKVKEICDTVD

[11] = target: Perilipin-1/ABHD5 (Homo sapiens, UniProt O60240+Q8WTS1); assay: Luminescence-based biochemical high throughput dose response assay for inhibitors of the interaction of the lipase co-activator protein, abhydrolase domain containing 5 (ABHD5) with perilipin-1 (PLIN1) (2K validation set). [Related pubchem assays (depositor defined):AID493027, AID493057]
[12] = target: Eukaryotic translation initiation factor 4E (Mus musculus, UniProt P63073); assay: blockers of eIF4G binding by eIF4E – biochemical, TR-FRET, dose response (AID 855); type: functional;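 note: potency for disrupting eIF4E binding to eIF4GI seen as loss of FRET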
Sequence of Eukaryotic translation initiation factor 4E (P63073 whole entry): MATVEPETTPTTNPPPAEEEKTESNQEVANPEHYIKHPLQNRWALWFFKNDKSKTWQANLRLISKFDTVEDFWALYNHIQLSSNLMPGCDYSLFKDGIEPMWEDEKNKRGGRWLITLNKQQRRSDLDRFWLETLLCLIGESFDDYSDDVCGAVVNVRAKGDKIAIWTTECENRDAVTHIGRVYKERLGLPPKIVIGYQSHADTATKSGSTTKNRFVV

[13] = target: Exodeoxyribonuclease V (Escherichia coli (strain K12), UniProt P04993+P07648+P08394); assay: RecBCD inhibition via phage-restricted bacterial growth – absorbance, V66 E. coli, mutant T4 phage, counter-screen for AddAB inhibitor project, dose response (AID 492957); type: functional, cell-based, Escherichia coli str. K-12 substr. MG1655
[14] = Counterscreen for AddAB inhibitors: absorbance-based bacterial cell-based high throughput dose response assay for inhibitors of bacterial viability. [Related pubchem assays (depositor defined):AID435030, AID449728, AID449731, AID488942, AID488955, AID488956]; type: functional
[15] = tested on: HEK293; assay: inhibition of NOD1-driven NF-kB reporter – cell-based, luminescence, uHTS, primary screen (AID 1578); type: functional; conditions: Homo sapiens
[16] = tested on: HEK293; assay: cells; type: functional, cell-based; conditions: Homo sapiens
[17] = tested on: HEK293; assay: cells; type: functional, cell-based; conditions: Homo sapiens; remark: listed apart in the source
[18] = target: Luciferin 4-monooxygenase (Photinus pyralis, UniProt P08659); assay: inhibition of purified Photinus pyralis luciferase – biochemical, luminescence, dose response (AID 1891)
Sequence of Luciferin 4-monooxygenase (P08659 whole entry): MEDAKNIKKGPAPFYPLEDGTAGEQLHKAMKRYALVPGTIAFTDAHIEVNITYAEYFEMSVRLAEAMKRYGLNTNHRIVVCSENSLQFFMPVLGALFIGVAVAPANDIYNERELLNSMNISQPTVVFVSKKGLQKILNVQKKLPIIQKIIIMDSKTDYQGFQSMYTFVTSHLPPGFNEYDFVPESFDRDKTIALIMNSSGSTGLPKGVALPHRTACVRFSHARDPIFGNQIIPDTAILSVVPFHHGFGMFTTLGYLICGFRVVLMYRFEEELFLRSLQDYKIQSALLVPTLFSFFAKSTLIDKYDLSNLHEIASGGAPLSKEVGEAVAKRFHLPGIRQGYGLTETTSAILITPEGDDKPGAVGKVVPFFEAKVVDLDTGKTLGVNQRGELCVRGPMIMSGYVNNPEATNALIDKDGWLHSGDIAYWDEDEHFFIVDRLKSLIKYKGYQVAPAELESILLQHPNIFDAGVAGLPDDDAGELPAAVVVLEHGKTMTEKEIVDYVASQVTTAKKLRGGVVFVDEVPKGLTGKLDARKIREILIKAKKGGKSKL

[19] = Luminescence Cell-Based Dose Confirmation HTS to Identify Inhibitors of Platelet Dense Granule Release. [Related pubchem assays: 1663 (Primary HTS), 1678 (Summary of Project)]; type: functional
[20] = target: Nucleotide-binding oligomerization domain-containing protein 2 (Homo sapiens, UniProt Q9HC29); assay: inhibition of NOD2-driven NF-kB reporter – cell-based, luminescence, uHTS, HEK293 (AID 1566); type: functional
Sequence of Nucleotide-binding oligomerization domain-containing protein 2 (Q9HC29 whole entry, the tested form may be a part): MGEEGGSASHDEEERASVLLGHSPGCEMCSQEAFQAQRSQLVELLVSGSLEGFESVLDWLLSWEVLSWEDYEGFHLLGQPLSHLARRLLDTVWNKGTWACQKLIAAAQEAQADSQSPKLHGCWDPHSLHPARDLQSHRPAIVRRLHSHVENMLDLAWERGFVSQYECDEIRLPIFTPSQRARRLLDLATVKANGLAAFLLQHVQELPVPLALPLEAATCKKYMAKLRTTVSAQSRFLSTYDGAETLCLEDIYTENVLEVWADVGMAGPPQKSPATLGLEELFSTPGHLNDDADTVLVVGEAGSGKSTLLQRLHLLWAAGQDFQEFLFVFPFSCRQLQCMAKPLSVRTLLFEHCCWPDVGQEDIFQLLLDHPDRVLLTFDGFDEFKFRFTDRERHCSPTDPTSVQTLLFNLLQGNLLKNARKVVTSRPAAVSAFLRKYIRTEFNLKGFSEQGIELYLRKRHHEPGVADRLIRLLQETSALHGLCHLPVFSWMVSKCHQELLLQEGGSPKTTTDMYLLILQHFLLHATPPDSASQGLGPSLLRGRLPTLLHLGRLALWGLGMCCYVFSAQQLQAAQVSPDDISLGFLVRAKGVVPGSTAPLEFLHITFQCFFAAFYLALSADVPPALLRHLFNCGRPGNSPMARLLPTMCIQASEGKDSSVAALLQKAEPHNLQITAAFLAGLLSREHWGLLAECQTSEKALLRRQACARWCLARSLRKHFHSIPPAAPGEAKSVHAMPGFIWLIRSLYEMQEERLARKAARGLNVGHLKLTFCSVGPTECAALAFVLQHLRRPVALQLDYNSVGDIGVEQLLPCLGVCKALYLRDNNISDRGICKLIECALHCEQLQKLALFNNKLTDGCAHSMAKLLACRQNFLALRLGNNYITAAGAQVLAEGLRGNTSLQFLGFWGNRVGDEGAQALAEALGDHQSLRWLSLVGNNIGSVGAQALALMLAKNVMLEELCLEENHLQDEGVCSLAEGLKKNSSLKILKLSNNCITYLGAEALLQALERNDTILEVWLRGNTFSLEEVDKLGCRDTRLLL

[21] = tested on: HEK293; assay: NOD2 signaling inhibitors in MDP-stimulated cells, cell-based, uHTS, luminescence (AID 2001); type: functional; conditions: Homo sapiens
[22] = tested on: HEK293; assay: cells; type: functional, cell-based; conditions: Homo sapiens; remark: listed apart in the source
[23] = reduction of Shn3 3'UTR-driven luciferase in osteoblasts – cell-based, Clone20 osteoblasts, firefly luciferase, cherry-picked, dose response (AID 624132); type: functional;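 note: firefly luciferase luminescence from reporter carrying the Shn3 3'UTR in osteoblasts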
[24] = loss of viability in HepG2 cells – cell-based, CellTiter-Glo, cherry-picked, cytotoxicity control for Shn3 inhibitor project, dose response (AID 624134); type: functional
[25] = non-specific 3'UTR reporter inhibition in Clone20-Shn3RL – cell-based, Renilla luciferase, cherry-picked, counter-screen for Shn3 inhibitor project, dose response (AID 624133); type: functional
[26] = target: T5, Cannabinoid receptor 2 (Homo sapiens, UniProt P34972); assay: SAR analysis of antagonists of the Cannabinoid Receptor 2 using an Image-Based Assay - Set 2. [Related pubchem assays (depositor defined):AID1961, AID1965]; type: functional
T5 sequence (P34972 whole entry): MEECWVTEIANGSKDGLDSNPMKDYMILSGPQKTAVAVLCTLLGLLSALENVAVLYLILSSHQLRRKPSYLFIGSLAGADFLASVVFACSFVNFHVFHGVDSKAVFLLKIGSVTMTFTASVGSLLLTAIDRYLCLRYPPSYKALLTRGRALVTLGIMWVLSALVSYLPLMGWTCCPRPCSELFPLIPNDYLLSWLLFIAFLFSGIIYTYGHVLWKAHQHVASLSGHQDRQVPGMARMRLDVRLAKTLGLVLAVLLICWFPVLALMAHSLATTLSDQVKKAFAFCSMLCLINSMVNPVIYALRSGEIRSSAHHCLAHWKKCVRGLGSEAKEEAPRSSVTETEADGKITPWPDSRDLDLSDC

[27] = target: T5, Cannabinoid receptor 2; assay: SAR analysis of agonists of the Cannabinoid Receptor 2 using an Image-Based Assay - Set 2. [Related pubchem assays (depositor defined):AID1961, AID1965]; type: functional
[28] = target: G-protein coupled receptor 55 (Homo sapiens, UniProt Q9Y2T6); assay: SAR analysis of selective Agonists of GPR55 using an Image-Based Assay. [Related pubchem assays (depositor defined):AID1961, AID1965]; type: functional
Sequence of G-protein coupled receptor 55 (Q9Y2T6 whole entry): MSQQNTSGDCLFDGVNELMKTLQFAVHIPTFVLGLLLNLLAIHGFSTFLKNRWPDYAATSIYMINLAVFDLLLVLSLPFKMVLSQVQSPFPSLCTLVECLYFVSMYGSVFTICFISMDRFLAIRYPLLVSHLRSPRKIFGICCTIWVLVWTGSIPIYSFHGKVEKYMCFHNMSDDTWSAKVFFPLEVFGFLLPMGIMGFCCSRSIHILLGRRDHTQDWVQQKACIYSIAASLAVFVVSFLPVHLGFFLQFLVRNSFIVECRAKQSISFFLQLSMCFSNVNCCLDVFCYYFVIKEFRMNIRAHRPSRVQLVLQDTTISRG

[29] = target: Cannabinoid receptor 1 (Homo sapiens, UniProt P21554); assay: SAR analysis of antagonists of the Cannabinoid Receptor 1 using an Image-Based Assay. [Related pubchem assays (depositor defined):AID1961, AID1965]; type: functional
Sequence of Cannabinoid receptor 1 (P21554 whole entry): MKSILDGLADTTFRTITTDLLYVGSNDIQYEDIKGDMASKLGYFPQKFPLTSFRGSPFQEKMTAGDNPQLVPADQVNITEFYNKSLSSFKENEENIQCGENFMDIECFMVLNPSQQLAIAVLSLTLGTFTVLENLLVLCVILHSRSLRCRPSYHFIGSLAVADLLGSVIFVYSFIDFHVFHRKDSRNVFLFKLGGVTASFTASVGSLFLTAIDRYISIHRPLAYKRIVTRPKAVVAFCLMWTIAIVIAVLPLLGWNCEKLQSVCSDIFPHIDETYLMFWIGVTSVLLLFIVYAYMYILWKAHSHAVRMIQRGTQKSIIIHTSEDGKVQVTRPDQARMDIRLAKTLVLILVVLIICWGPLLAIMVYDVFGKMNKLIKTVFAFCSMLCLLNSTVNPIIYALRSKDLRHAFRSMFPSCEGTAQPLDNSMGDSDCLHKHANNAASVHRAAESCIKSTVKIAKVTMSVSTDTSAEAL

T1 sequence (P51452 whole entry): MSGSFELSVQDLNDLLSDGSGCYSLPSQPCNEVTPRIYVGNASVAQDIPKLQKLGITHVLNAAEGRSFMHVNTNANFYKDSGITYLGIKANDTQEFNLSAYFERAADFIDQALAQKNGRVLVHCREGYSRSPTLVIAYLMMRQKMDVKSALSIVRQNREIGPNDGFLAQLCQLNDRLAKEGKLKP

**Q.** For `Cc1c(CCC(=O)O)c(=O)oc2c(C)c3occ(-c4ccc(Br)cc4)c3cc12`, which IC50 [1] is on record?
**A.** 11.1 µM (active)

**Q.** What about the IC50 [2] of the same compound?
**A.** 11.3 µM (active)

**Q.** What about the IC50 [3] of the same compound?
**A.** 69.2 µM (active)

**Q.** What about the CC50 [4] of the same compound?
**A.** > 40 µM (active)

**Q.** What about the IC50 [5] of the same compound?
**A.** 33.2 µM (active)

**Q.** And the IC50 [6]?
**A.** 3.57 µM (active)

**Q.** What about the IC50 [7] of the same compound?
**A.** > 66.6 µM (inactive)

**Q.** And the IC50 [8]?
**A.** 12.6 µM (active)

**Q.** And the AC50 [9]?
**A.** 99.5 µM (active)

**Q.** With `COc1cc(/C=C(\C#N)C(=O)N2CCc3ccccc32)ccc1O` as the compound, how does the IC50 [10] read?
**A.** > 26.5 µM (inactive)

**Q.** What about the IC50 [11] of the same compound?
**A.** 21.4 µM (inactive)

**Q.** And the IC50 [12]?
**A.** 50 µM (inactive)

**Q.** With `COc1ccc(OCC(O)CNc2ccc(Br)cc2)cc1` (stereo not given) as the compound, how does the IC50 [13] read?
**A.** > 119 µM (inactive)

**Q.** And the IC50 [14]?
**A.** > 119 µM (inactive)

**Q.** Which EC50 [15] does the source give for `CCC1CCCCN1S(=O)(=O)c1ccc(NC(=O)c2ccncc2)cc1` (stereo not given) here?
**A.** 5.51 µM (active)

**Q.** What about the IC50 [16] of the same compound?
**A.** 8.23 µM (active)

**Q.** And the IC50 [17]?
**A.** 19.3 µM (active)

**Q.** What about the EC50 [18] of the same compound?
**A.** > 112 µM (not active)

**Q.** What about the EC50 [19] of the same compound?
**A.** > 112 µM (not active)

**Q.** And the EC50 [20]?
**A.** > 20 µM (inactive)

**Q.** What about the IC50 [21] of the same compound?
**A.** 11.7 µM (inactive)

**Q.** And the IC50 [22]?
**A.** > 20 µM (inactive)

**Q.** What about the AC50 [23] of the same compound?
**A.** 3.43 µM (active)

**Q.** And the AC50 [24]?
**A.** 4.88 µM (active)

**Q.** What about the AC50 [25] of the same compound?
**A.** 16.5 µM (active)

**Q.** Which results are given for `COc1ccc(CCNc2oc(COc3ccccc3Cl)nc2C#N)cc1OC`?
**A.** EC50 [15]: 14 µM (active); IC50 [16]: 8.53 µM (active); IC50 [17]: 11.1 µM (active); EC50 [20]: 16 µM (active); IC50 [21]: 8.33 µM (active); IC50 [22]: > 20 µM (inactive)

**Q.** Which results are given for `C/C(C=NNC(=O)c1nnn(-c2nonc2N)c1CN1CCC(C)CC1)=C/c1ccccc1`?
**A.** IC50 [26]: > 32 µM (inactive); EC50 [27]: > 32 µM (inactive); EC50 [28]: 0.681 µM (active); IC50 [29]: > 32 µM (inactive)
